Data taken from patent US20090010873A1, “Methods of Cell Therapy, Neurogenesis and Oligodendrogenesis” (YEDA RESEARCH AND DEVELOPMENT CO. LTD., priority 2004, published 2009).

System: neural progenitor cells (NPCs)
Test: NPCs co-cultured with microglia pre-activated by aggregated Aβ and cytokines (β-III-tubulin)
Format: cell-based, mouse
Conditions: 10 days co-culture; Aβ 5 μM, IFN-γ 10 ng/ml
Procedure: (xlvi) Reagents. Recombinant mouse IFN-γ and IL-4 (both containing endotoxin at a concentration below 0.1 ng/μg cytokine) were obtained from R&D Systems (Minneapolis, Minn.). β-amyloid peptides [amyloid protein fragment 1-40 and 1-42 (Aβ1-40/1-42)] were purchased from Sigma-Aldrich, St. Louis, Mo. The Aβ peptides were dissolved in endotoxin-free water, and Aβ aggregates were formed by incubation of Aβ, as described (Ishii et al., 2000).
(li) Neural progenitor cell culture. Coronal sections (2 mm thick) of tissue containing the subventricular zone of the lateral ventricle were obtained from the brains of adult C57B1/6J mice. The tissue was minced and then incubated for digestion at 37° C., 5% CO2 for 45 min in Earle's balanced salt solution containing 0.94 mg/ml papain (Worthington, Lakewood, N.J.) and 0.18 mg/ml of L-cysteine and EDTA. After centrifugation at 110×g for 15 min at room temperature, the tissue was mechanically dissociated by pipette trituration. Cells obtained from single-cell suspensions were plated (3500 cells/cm^2) in 75-cm^2 Falcon tissue-culture flasks (BD Biosciences, San Diego, Calif.), in NPC-culturing medium [Dulbecco's modified Eagles's medium (DMEM)/F12 medium (Gibco/Invitrogen, Carlsbad, Calif.) containing 2 mM L-glutamine, 0.6% glucose, 9.6 μg/ml putrescine, 6.3 ng/ml progesterone, 5.2 ng/ml sodium selenite, 0.02 mg/ml insulin, 0.1 mg/ml transferrin, 2 μg/ml heparin (all from Sigma-Aldrich, Rehovot, Israel), fibroblast growth factor-2 (human recombinant, 20 ng/ml), and epidermal growth factor (human recombinant, 20 ng/ml; both from Peprotech, Rocky Hill, N.J.)]. Spheres were passaged every 4-6 days and replated as single cells. Green fluorescent protein (GFP)-expressing NPCs were obtained as previously described (Pluchino et al., 2003).
(lii) Primary microglial culture. Brains from neonatal (P0-P1) C57B1/6J mice were stripped of their meninges and minced with scissors under a dissecting microscope (Zeiss, Stemi DV4, Germany) in Leibovitz-15 medium (Biological Industries, Kibbutz Beit Ha-Emek, Israel). […]

IFN-γ
GFP^+/βIIIT^+ cells (neurogenesis) with microglia activated by the agent: dramatic
